Experimental data reported in patent US20230212129A1, “QUINAZOLINE DERIVATIVES USEFUL AS SELECTIVE HDAC6 INHIBITORS” (AnnJi Pharmaceutical Co., Ltd., priority 2020, published 2023).

Legend:
[1] = tested on: dorsal root ganglion (DRG) cells; test: DRG neurite outgrowth after paclitaxel-induced damage; format: cell-based, C57BL/6J mice; conditions: 0.1 μM and 1 μM, 24 hours prior to 24-hour 0.1 μM paclitaxel; FIG. 1
Experimental: (§1) To investigate the effect of HDAC6 inhibitors in neuron protection and neuron regeneration, the recovery of dorsal root ganglion (DRG) cells post-paclitaxel injury was tested. Dorsal root ganglion was extracted from 7 week-old female C57BL/6J mice and incubated with HDAC6 inhibitors (compounds COMPOUND 33, COMPOUND 34, or COMPOUND 2) at the concentrations of 0.1 μM and 1 μM, or 100 ng/ml of BDNF, a neuronal growth factor (positive control), for 24 hours prior to a 24-hour incubation of 0.1 μM paclitaxel.
The neurite was stained by pIII-tubulin.

[2] = Oral pharmacokinetics (Table II); set-up: AUC: concentration or dose not given beside the values; conditions: in vivo; for AUC: unit inferred
[3] = tested on: acetylated α-tubulin (Ac-α-tub); test: Western blot of acetylated α-tubulin in primary DRG cells; format: cell-based, C57BL/6J mice; conditions: 48 hours of treatment, FIG. 2
Experimental: as §1

[4] = biological target: T1, HDAC1 (Homo sapiens, UniProt Q13547); test: HDAC1 activity, acetylated-AMC-labeled peptide substrate; format: biochemical
T1 construct: GST (C); host or cells: baculovirus expression system, Sf9 insect cells (SP9 [sic])
T1 sequence (Q13547 whole entry): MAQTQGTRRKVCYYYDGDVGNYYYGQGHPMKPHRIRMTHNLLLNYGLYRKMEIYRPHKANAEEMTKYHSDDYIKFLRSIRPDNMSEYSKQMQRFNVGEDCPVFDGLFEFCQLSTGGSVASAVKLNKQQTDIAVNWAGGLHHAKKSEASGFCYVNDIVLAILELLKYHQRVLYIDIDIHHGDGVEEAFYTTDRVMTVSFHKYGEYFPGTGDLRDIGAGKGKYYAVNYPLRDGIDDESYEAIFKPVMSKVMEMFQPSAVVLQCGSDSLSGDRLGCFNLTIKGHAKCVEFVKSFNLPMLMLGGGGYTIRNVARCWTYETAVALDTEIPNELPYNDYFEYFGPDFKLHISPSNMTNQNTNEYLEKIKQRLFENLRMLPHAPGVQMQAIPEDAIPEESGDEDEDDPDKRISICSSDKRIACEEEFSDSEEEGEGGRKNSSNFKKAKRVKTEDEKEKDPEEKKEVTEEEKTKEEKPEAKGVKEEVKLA
Experimental: (§2) The activities of HDAC 1 and 6 were measured by using an acetylated-AMC-labeled peptide substrate, a fluorogenic peptide from p53 residues 379-382 (RHIKKAc). The proteins involved in the assay are as the followings (1) Human HIDAC1 (Genflank Accession No. NM_004964): Full length with C-terminal GST tag, MW=79.9 kDa, expressed by baculovirus expression system in SP9 cells; and (2) Human HIDAC6 (Genflank Accession No. BC069243): Full length with N-terminal GST tag, MW=159 kDa, expressed by baculovirus expression system in Sf9 cells.

[5] = biological target: T2, HDAC6 (Homo sapiens, UniProt Q9UBN7); test: HDAC6 activity, acetylated-AMC-labeled peptide substrate; format: biochemical; conditions: for HDAC6 selectivity (A)/(B): HDAC1 IC50 / HDAC6 IC50; for IC50: read-out: HDAC6 IC50 (B)
T2 construct: GST (N); host or cells: baculovirus expression system, Sf9 insect cells
T2 sequence (Q9UBN7 1-1215): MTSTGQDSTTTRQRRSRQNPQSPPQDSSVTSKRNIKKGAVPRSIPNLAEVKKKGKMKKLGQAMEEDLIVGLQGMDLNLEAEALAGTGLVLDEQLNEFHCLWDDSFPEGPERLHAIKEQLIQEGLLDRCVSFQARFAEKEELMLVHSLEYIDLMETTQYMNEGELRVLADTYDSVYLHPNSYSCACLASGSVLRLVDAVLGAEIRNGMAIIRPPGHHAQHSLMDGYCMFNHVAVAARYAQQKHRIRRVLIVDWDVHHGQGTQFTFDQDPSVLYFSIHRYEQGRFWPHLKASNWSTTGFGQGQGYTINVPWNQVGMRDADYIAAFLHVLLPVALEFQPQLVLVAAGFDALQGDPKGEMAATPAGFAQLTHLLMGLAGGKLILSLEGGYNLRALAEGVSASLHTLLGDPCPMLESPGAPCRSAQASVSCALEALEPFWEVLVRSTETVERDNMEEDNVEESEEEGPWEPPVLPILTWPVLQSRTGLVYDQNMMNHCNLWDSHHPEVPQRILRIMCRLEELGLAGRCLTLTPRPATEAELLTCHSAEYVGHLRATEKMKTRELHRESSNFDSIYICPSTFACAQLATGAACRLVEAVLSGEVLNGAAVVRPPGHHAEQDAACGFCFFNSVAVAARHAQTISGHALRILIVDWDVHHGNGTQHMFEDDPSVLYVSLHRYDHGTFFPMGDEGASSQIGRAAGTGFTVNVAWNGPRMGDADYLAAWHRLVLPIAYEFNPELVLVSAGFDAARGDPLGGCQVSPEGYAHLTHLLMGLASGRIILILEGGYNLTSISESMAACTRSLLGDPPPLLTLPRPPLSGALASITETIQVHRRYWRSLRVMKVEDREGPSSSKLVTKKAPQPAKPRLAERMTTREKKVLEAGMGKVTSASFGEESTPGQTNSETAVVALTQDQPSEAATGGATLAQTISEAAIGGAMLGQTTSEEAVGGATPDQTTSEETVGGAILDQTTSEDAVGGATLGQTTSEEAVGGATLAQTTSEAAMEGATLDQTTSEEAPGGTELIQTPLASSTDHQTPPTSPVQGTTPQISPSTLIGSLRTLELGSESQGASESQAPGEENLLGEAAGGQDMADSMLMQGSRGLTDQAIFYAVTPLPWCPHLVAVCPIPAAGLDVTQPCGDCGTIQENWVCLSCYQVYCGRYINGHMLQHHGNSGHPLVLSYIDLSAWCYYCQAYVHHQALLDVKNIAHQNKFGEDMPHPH
Experimental: as §2

[6] = tested on: cisplatin-induced neuropathy; test: Cisplatin-induced neuropathy, von Frey paw-withdrawal murine model; format: in vivo, Balb/c mice; conditions: oral once daily Day 16 to 29 (pregabalin 15 mg/kg one hour prior to test); vs cisplatin control; FIG. 4
Experimental: To understand whether COMPOUND 2 exerts neuron protective activities in cisplatin-induced neuropathy, a paw-withdrawal murine model is deployed. The 50% paw withdrawal threshold (PWT) to a static mechanical stimulus was assessed using von Frey filament and up-and-down method following the procedure described by Chaplan (1994). Mechanical allodynia, a painful sensation caused by innocuous stimuli like light touch, was assessed by the manual von Frey test once per week (on day 7, 14, 21, 28, […], and 42). The animals indicated sensation by pulling back its paw. The minimum force leading to withdrawal of the paw was regarded as the reflex threshold.
Balb/c mice weighing about 25±2 gram were given cisplatin intraperitoneally at the dose of 1.5 mg/kg for 5 consecutive days (cumulative dose of 7.5 mg/kg), followed by 5 days of recovery. The cisplatin administration cycle was repeated once more to reach a cumulative dose of 15 mg/kg to induce neuropathy. Test compounds, COMPOUND 2 and ACY1215, were orally administered once daily for 2 weeks (except for the weekends) from Day 16 to 29. Pregabalin, a drug known to provide transient pain relief, was administered at a dose of 15 mg/kg prior to each von Frey stimulus test to serve as the positive control.

[7] = tested on: Rat DRG cells; test: Cisplatin-induced neurite degeneration in DRG cells; format: cell-based; conditions: 0.3 μM with 0.5 mM cisplatin, 48 hours; p<0.05; FIG. 3
Experimental: Rat DRG cells were used to investigate the protective effect of HDAC6 inhibitors. DRG cells were treated with 0.5 mM of cisplatin with or without 0.3 μM of COMPOUND 2 or ACY1215 for 48 hours. The neurite area and the number of blebs (cell apoptosis) per image were calculated and their ratio values among the tested groups were compared and shown in FIG. 3.

[8] = tested on: paclitaxel-induced peripheral neuropathy; test: Paclitaxel-induced peripheral neuropathy, Von Frey test; format: in vivo, Sprague-Dawley (SD) rats; conditions: for mean withdrawal force threshold: 15 mg/kg one hour prior to test, mean±SEM
Experimental: Male Sprague-Dawley (SD) rats, weighing 320±30 grams, were given paclitaxel intraperitoneally at the dose of 6 mg/kg for 5 consecutive days with a total cumulative dose of 30 mg/kg to induce chemotherapy-induced peripheral neuropathy.
Compound 2 or vehicle was administered orally once daily for 2 weeks during the weekdays (Days 8 to 12 and 15-19). Mechanical allodynia is assessed by the manual Von Frey test once per week. The animals are given 20 to 30 minutes to acclimatize prior to the testing. The paw is pressed with a series of 8 manual Von Frey monofilaments with logarithmically incremental stiffness [3.61 (0.4 g), 3.84 (0.6 g), 4.08 (1.0 g), 4.31 (2.0 g), 4.56 (4.0 g), 4.93 (8.0 g), 5.18 (15.0 g) and (26.0 g)]. The manual Von Frey monofilament was applied perpendicularly from underneath the mesh floor to the central plantar surface with sufficient force to cause a slight buckling against the paw, and held for approximately 6-8 seconds. A positive response was noted if the paw is sharply withdrawn; ambulation is considered an ambiguous response, and in such cases, the stimulus is reapplied. The 50% paw withdrawal threshold (PWT) to a static mechanical stimulus was assessed using Von Frey filament and up-and-down method.
Von Frey data were presented as mean±SEM (Standard Error of the Mean). Treatment groups were compared to the paclitaxel control using Student's T-test. A p value <0.05 is considered to represent a significant difference.

Compound | neurite outgrowth [1] | Cmax [2] [ng/mL] | AUC [2] [ng·h/mL] | tubulin hyperacetylation [3] | IC50 [4] [nM] | HDAC6 selectivity (A)/(B) [5] | IC50 [5] [nM] | mean withdrawal threshold (50% PWT) [6] | neurite degeneration (neurite area and number of blebs ratio) [7] | mean withdrawal force threshold ([8]; Day 14) [g] | mean withdrawal force threshold ([8]; Day 21) [g] | pain-relief after dosing was stopped ([8]; FIG. 7)
CCc1nc2cc(F)c(/C=C/C(=O)NO)cc2c(=O)n1-c1ccc(OC)cc1C [Compound 34, (E)-3-(2-ethyl-7-fluoro-3-(4-methoxy-2-methylphenyl)-4-oxo-3,4-dihydroquinazolin-6-yl)-N-hydroxyacrylamide] | significantly rescued the neurite outgrowth | 873 | 11000 | tubulin hyperacetylation | 4550 | 175 | 26 | – | – | – | – | –
Cc1ccccc1-n1c(C)nc2cc(F)c(/C=C/C(=O)NO)cc2c1=O [Compound 44] | – | 719 | 5720 | – | 2580 | 129 | 20 | – | – | – | – | –
Cc1cccc(C)c1-n1c(C)nc2cc(F)c(/C=C/C(=O)NO)cc2c1=O [Compound 1, (E)-3-(3-(2,6-dimethylphenyl)-7-fluoro-2-methyl-4-oxo-3,4-dihydroquinazolin-6-yl)-N-hydroxyacrylamide] | – | 4130 | 5830 | – | 3940 | 328 | 12 | – | – | – | – | –
O=C(CCCCCCNC(=O)c1cnc(N(c2ccccc2)c2ccccc2)nc1)NO [ACY-1215, reference compound] | – | – | – | – | – | – | – | not ACY1215, Reverses Cisplatin-Induced Neuropathy | significantly lesser degree of neurite degeneration | – | – | –
CCc1nc2c(F)cc(/C=C/C(=O)NO)cc2c(=O)n1-c1c(C)cccc1C [Compound 11, (E)-3-(3-(2,6-dimethylphenyl)-2-ethyl-8-fluoro-4-oxo-3,4-dihydroquinazolin-6-yl)-N-hydroxyacrylamide] | – | 727 | 7180 | – | 6900 | 43 | 159 | – | – | – | – | –
CCc1nc2cc(F)c(/C=C/C(=O)NO)cc2c(=O)n1-c1ccc(F)cc1C [Compound 26, (E)-3-(2-ethyl-7-fluoro-3-(4-fluoro-2-methylphenyl)-4-oxo-3,4-dihydroquinazolin-6-yl)-N-hydroxyacrylamide] | – | 2680 | 12000 | – | 4320 | 180 | 24 | – | – | – | – | –
CC(C)C[C@H](CN)CC(=O)O [Pregabalin, reference compound] | – | – | – | – | – | – | – | increased withdrawal threshold | – | 24.1 ± 3.45 | 26 ± 0 | failed to show the efficacy
CCc1nc2cc(F)c(/C=C/C(=O)NO)cc2c(=O)n1-c1cccc(C)c1C [Compound 22, (E)-3-(3-(2,3-dimethylphenyl)-2-ethyl-7-fluoro-4-oxo-3,4-dihydroquinazolin-6-yl)-N-hydroxyacrylamide] | – | 3330 | 9920 | – | 4240 | 77 | 55 | – | – | – | – | –
CCc1nc2cc(F)c(/C=C/C(=O)NO)cc2c(=O)n1-c1ccc(Br)cc1C [Compound 6, (E)-3-(3-(4-bromo-2-methylphenyl)-2-ethyl-7-fluoro-4-oxo-3,4-dihydroquinazolin-6-yl)-N-hydroxyacrylamide] | – | 3630 | 42600 | – | 5100 | 85 | 60 | – | – | – | – | –
